US4389327A, “Use of selected 1,2-dihydro-1,2,4,5-tetrazines as oxygen-scavenging agents” (priority 1982, dated 1983)

Experiments:
[1] = Deoxygenation of air-saturated buffered distilled water (oxygen meter), time for removal of dissolved oxygen; conditions: pH 9.5, about 25° C.; for T1/2, time required for removal of half of the dissolved oxygen: 2.4×10^-4 moles dissolved O2; for T9/10, time for removal of 90% of the oxygen: measured if under 10 minutes
Method: Weighed amounts of this compound were placed in 100 ml volumetric flasks and diluted with deoxygenated, deionized water. Aliquots of this mixture were injected in the test cell as shown in Example 4.
Again, weighed amounts of this compound were placed in 100 ml volumetric flasks and diluted with deoxygenated, deionized water. Aliquots of this mixture were injected into the test cell as shown in Example 4.
These deoxygenation measurements were run in a one liter round bottom flask equipped with a small septum-covered side arm and a standard taper joint into which was inserted the probe of an oxygen meter (Model 54 made by Yellow Springs Instrument Co. of Yellow Springs, Ohio). For each test, the flask was filled with air-saturated, buffered (with Na2 CO3 /NaHCO3 to pH of 9.5) distilled water. The amount of dissolved O2 content in the water was 2.4×10^-4 moles.
After filling with water, the probe was inserted into the flask and a sample of the compound made in Examples 1, 2, or 3 was injected through the side arm.
The times required for removal of half of the dissolved oxygen were measured (T1/2). Also, the times for removal of 90% of the oxygen (T9/10) were also measured if under 10 minutes.

[2] = Water solubility (remark); assay type: physicochemical
[3] = amount of compound 2.4 × 10^-4 moles
[4] = amount of compound 7.2 × 10^-4 moles
[5] = amount of compound 12.0 × 10^-4 moles

| Compound | T1/2, time required for removal of half of the dissolved oxygen [1, 3] | T1/2, time required for removal of half of the dissolved oxygen [1, 4] | T9/10, time for removal of 90% of the oxygen [1, 4] | T1/2, time required for removal of half of the dissolved oxygen [1, 5] | T9/10, time for removal of 90% of the oxygen [1, 5] | water solubility [2] |
| --- | --- | --- | --- | --- | --- | --- |
| CCC1=NN=C(CC)NN1 [3,6-diethyl-1,2-dihydro-1,2,4,5-tetrazine] | 7.5 min | 0.9 min | 1.5 min | 0.6 min | 0.9 min | – |
| CC1=NN=C(C)NN1 [3,6-dimethyl-1,2-dihydro-1,2,4,5-tetrazine] | – | 1.5 min | 2.2 min | 0.12 min | 0.30 min | – |
| c1ccc(C2=NNC(c3ccccc3)=NN2)cc1 [3,6-diphenyl-1,2-dihydro-1,2,4,5-tetrazine] | 6 min | – | – | – | – | limited water solubility |
| NN [hydrazine, reference compound] | – | – | – | > 10 min | – | – |
